From ChEMBL document CHEMBL4665751, “Discovery of Clinical Candidate (5-(3-(4-Chlorophenoxy)prop-1-yn-1-yl)-3-hydroxypicolinoyl)glycine, an Orally Bioavailable Prolyl Hydroxylase Inhibitor for the Treatment of Anemia” (J Med Chem, 2020)
Calls of active or inactive are those of the source. The calls are words filed in the database; no cut-off is given here.

What was measured:
[1] = molecular target: Egl nine homolog 1 (Homo sapiens, UniProt Q9GZT9); experiment: Inhibition of FITC-HIF1alpha (556 to 574 residues) binding to PHD2 (181 to 426 residues) (unknown origin) by fluorescence polarization assay
Sequence of Egl nine homolog 1 (Q9GZT9 whole entry, the tested form may be a part): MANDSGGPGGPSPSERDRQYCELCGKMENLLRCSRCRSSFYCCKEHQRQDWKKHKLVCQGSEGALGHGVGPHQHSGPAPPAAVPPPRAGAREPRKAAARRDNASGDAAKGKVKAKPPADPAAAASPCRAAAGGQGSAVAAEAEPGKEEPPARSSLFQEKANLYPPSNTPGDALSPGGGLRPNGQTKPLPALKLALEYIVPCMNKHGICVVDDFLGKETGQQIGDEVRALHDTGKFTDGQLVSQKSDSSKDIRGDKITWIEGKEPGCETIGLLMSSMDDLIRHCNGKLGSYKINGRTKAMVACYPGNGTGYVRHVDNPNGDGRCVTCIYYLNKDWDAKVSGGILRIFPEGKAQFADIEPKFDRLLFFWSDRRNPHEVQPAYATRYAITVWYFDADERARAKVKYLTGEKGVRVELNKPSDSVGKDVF

[2] = In vivo inhibition of PHD2 in C57BL/6 mouse assessed as increase in EPO plasma level by measuring EPO level at 15 mg/kg, iv measured after 4 hrs by ELISA; format: functional
[3] = system: Mus musculus; experiment: Antianemic activity in cisplatin-induced C57BL/6 mouse anemia model assessed as improvement in anemia at 25 mg/kg, po administered every other day for 1 month; format: functional; details: time 1 months, 730 h
[4] = system: Mus musculus; experiment: In vivo inhibition of PHD2 in C57BL/6 mouse assessed as upregulation of EPO plasma level by measuring EPO level at 15 mg/kg, po measured after 4 hrs by ELISA; format: functional, organism-based
[5] = system: Mus musculus; experiment: In vivo inhibition of PHD2 in po dosed C57BL/6 mouse assessed as upregulation of EPO plasma level administered 4 times for 3 days by ELISA; format: functional, organism-based; details: dose mg/kg 5-50, time 3.0 day
[6] = system: Mus musculus; experiment: Antianemic activity in cisplatin-induced C57BL/6 mouse anemia model assessed as improvement in anemia at 10 mg/kg, po administered every other day for 1 month; format: functional; details: time 1 months, 730 h
[7] = system: Mus musculus; experiment: Antianemic activity in cisplatin-induced C57BL/6 mouse anemia model assessed as increase in haemoglobin level administered orally every other day for 1 month; format: functional, organism-based; details: dose mg/kg 10-25, time 1.0 months
[8] = system: Mus musculus; experiment: Induction of erythropoiesis in po dosed C57BL/6 mouse assessed as increase in red blood cell count administered thrice for 3 days measured 4 hrs post last dose; format: functional, organism-based; details: dose mg/kg 5-50, time 72.0 hrs

| IC50 [1] [nM] | Structure (SMILES) | further results |
| --- | --- | --- |
| 408 | O=C(O)CNC(=O)c1ncc(C#CCOCCc2ccc(Cl)cc2)cc1O |  |
| 1070 | O=C(O)CNC(=O)c1ncc(C#CCOc2ccccc2C(F)(F)F)cc1O |  |
| 263 | N#Cc1ccc(OCC#Cc2cnc(C(=O)NCC(=O)O)c(O)c2)cc1 |  |
|  | COc1ccc(OCC#Cc2cnc(C(=O)NCC(=O)O)c(O)c2)cc1 | Activity [2]: >1000 pg/mL |
| 428 | COc1cccc(OCC#Cc2cnc(C(=O)NCC(=O)O)c(O)c2)c1 |  |
| 125 | Cc1cccc(OCC#Cc2cnc(C(=O)NCC(=O)O)c(O)c2)c1 | Activity [2]: >1000 pg/mL |
| 454 | CN(CC#Cc1cnc(C(=O)NCC(=O)O)c(O)c1)c1ccccc1 |  |
|  | O=C(O)CNC(=O)c1ncc(C#CCOc2ccccc2Cl)cc1O | Activity [2]: >1000 pg/mL |
| 218 | COc1ccccc1OCC#Cc1cnc(C(=O)NCC(=O)O)c(O)c1 |  |
| 256 | O=C(O)CNC(=O)c1ncc(C#CCOc2cccc(F)c2)cc1O |  |
| 84.3 | O=C(O)CNC(=O)c1ncc(C#CCOCc2ccc(Cl)cc2)cc1O |  |
| 877 | O=C(O)CNC(=O)c1ncc(C#CCOc2cccc(C(F)(F)F)c2)cc1O |  |
| 587 | O=C(O)CNC(=O)c1ncc(C#CCOc2cccc(Cl)c2)cc1O |  |
| 346 | O=C(O)CNC(=O)c1ncc(C#CCOc2cccc3ccccc23)cc1O |  |
| 825 | O=C(O)CNC(=O)c1ncc(C#CCOc2ccc(-c3ccccc3)cc2)cc1O |  |
|  | Cc1nc(C(=O)NCC(=O)O)c(O)c2ccc(Oc3ccccc3)cc12 [ROXADUSTAT] | Activity [3]: 115.2%; inhibition [4]: Active; inhibition [5]: Dose-dependent effect; Activity [6]: 86.4%; Activity [7]: Active; Activity [8]: Dose-dependent effect |
